Reference: patent publication US9375457B2, “Composition comprising Rhizoma coptidis, Cortex phellodendri and Fructus gardeniae and for treating neurodegenerative diseases” (Hong Kong Baptist University, priority 2013, dated 2016)

Columns and labels:
[1] = test system: APP processing (F1-APP, pAPPThr668, CTFs, sAPPα, sAPPβ-sw) in N2a-SwedAPP cells; assay: Western blot of APP metabolic products in N2a-SwedAPP cells; type: cell-based, murine; parameters: key to Fl-APP (overall influence) / CTFs (overall influence) / sAPPα (overall influence) / sAPPβ (overall influence): ↓ decreased; ↑ increased; ? unchanged
Method: (§1) N2a-SwedAPP cells were obtained from Dr. Gopal Thinakaran (University of Chicago, Chicago, Ill., USA). N2a-SwedAPP cells were cultured in Dulbecco's modified Eagle's medium (DMEM) and OPTI-MEM medium in a 1:1 ratio with 5% FBS, 50 μg/mL penicillin, 50 μg/mL streptomycin and 200 μg/mL G418 as previously described in Thinakaran G, Teplow D B, Siman R, Greenberg B, Sisodia S S (1996) Metabolism of the “Swedish” amyloid precursor protein variant in neuro2a (N2a) cells. J Biol Chem 271: 9390-9397. N2a-SwedAPP cells were incubated at 37° C. in a 5% CO2/95% humidity incubator. Cells were seeded 24 hours prior to the treatments. When growth reached close to 90% of confluence, cells were transferred into DMEM with 1% FBS for loading extracts. The final concentration of DMSO in all experiments was 0.1%, and this concentration caused no cytotoxicity.
To detect the levels of APP metabolic products, the cell lysates and the conditioned media were prepared as described in Durairajan S S K, Liu L F, Lu J H, Koo I, Maruyama K, Chung S K, Huang J D, Li M. (2011) Stimulation of non-amyloidogenic processing of amyloid-β protein precursor by cryptotanshinone involves activation and translocation of ADAM10 and PKC-α. J Alzheimer's Dis 25: 245-262, with minor modification. N2a-SwedAPP cells were seeded at a density of 4×10^5/mL in DMEM medium in a 6-well plate and cultured for 1 day. After transfer, cells were treated with different doses of RC, CP, FG and RS for 48 hours, then the extracellular media were collected for detection of sAPPα and sAPPβ-sw, and cells were harvested to quantify F1-APP and β-actin by Western blot analysis, as described previously by Durairajan et al. For intracellular APP, APP-CTFs and Aβ preparation, cells were washed with ice-cold PBS twice and solubilized in ice-cold RIPA buffer with protease inhibitor cocktail added. Lysates were collected and centrifuged at 16,000×g for 15 minutes at 4° C. The resulting supernatants were collected, and their protein concentrations were determined with bicinchoninic acid (BCA) protein assay reagent (Thermo Scientific, IL, USA). For sAPPα and sAPPβ-sw detection, the conditioned media are collected and frozen in liquid nitrogen, subjected to lyophilization at −40° C. under vacuum of 105 μbar for 2 days in order to remove all liquid. The conditioned media were standardized to total cell lysate protein.
For Western blot analysis from cell culture or mouse brain, 10-30 μg total protein is separated on 10% and 15% SDS-PAGE gels and blotted onto PVDF membranes for the detection of full length APP (F1-APP), CTFs, sAPPα, sAPPβ-sw, 3-actin and phosphorylated APP (pAPPThr668). After blocking with 5% skimmed milk, the blots are incubated with primary antibodies overnight at 4° C. with shaking. Blots are washed and incubated with HRP-conjugated secondary antibodies. The goat anti-mouse IgG is used when the primary antibody is 6E10 (1:1000), sAPPβ-sw (1:100), or anti-β-actin (1:5000), and the goat anti-rabbit IgG is used when the primary antibody is anti-CT15 (1:5000) or pAPPThr668 (1:1000). After incubation with HRP-conjugated secondary antibody, immunoblots are treated with ECL and developed using X-ray films (Fujifilm). Films are scanned, and the band intensity is analyzed using Image J software (NIH Image).
Stripped CT15 and 6E10 probed membranes are reincubated with pAPPThr668 and sAPPβ-sw 6A1 antibodies, respectively.
Western blotting of N2a-SwedAPP cells is used to test differences in the processing of Swedish mutant APP by HLJDT components. Several antibodies are used in Western blot analysis: CT15 recognizes full length APP (F1-APP), 6E10 identifies only α-secretase-cleaved APP i.e sAPPα, and the sAPPβ-sw specific for β-secretase cleavage of Swedish mutant APP.

TgCRND8 mice = conditions: chronic administration; cited from earlier work
[2] = test system: intracellular Aβ1-40 and Aβ1-42 in N2a-SwedAPP cells; assay: Sandwich ELISA of intracellular Aβ in N2a-SwedAPP cells; type: cell-based, murine; parameters: key to Aβs (overall influence): ↓ decreased; ↑ increased; ? unchanged
Method: N2a-SwedAPP cells were seeded at a density of 4×10^5/mL in DMEM medium in a 6-well plate and cultured for 1 day. After transfer, cells were treated with different doses of RC, CP, FG and RS for 48 hours, then the extracellular media were collected for detection of sAPPα and sAPPβ-sw, and cells were harvested to quantify F1-APP and β-actin by Western blot analysis, as described previously by Durairajan et al. For intracellular APP, APP-CTFs and Aβ preparation, cells were washed with ice-cold PBS twice and solubilized in ice-cold RIPA buffer with protease inhibitor cocktail added. Lysates were collected and centrifuged at 16,000×g for 15 minutes at 4° C. The resulting supernatants were collected, and their protein concentrations were determined with bicinchoninic acid (BCA) protein assay reagent (Thermo Scientific, IL, USA). […] The conditioned media were standardized to total cell lysate protein.
The levels of intracellular Aβ1-40 and Aβ1-42 are quantified by using a sandwich ELISA as previously described by Durairajan et al., 2011 with minor modification. Equal amounts of cell or brain lysates are used for Aβ quantification by sandwich ELISA. The monoclonal antibody 6E10 is used as the capture antibody by adding to ELISA plates (0.2 μg diluted in 0.1 M Na2CO3 (pH 9.6) per well) and incubated overnight at 4° C. The plates are washed with PBS (0.05% Tween 20) and blocked with 4% BlockAce (Serotec, Raleigh, N.C., USA) for 2 hours at room temperature. Equilibrated protein lysates from each treatment (a 100 μL volume is adjusted in all treatment groups by using PBS) are applied in duplicate and incubated at room temperature for 2 hours with constant rotation at 30 rpm. Biotinylated monoclonal anti-Aβ40 5C3 (50 ng per well) and biotinylated monoclonal 8G7 (50 ng per well) antibodies are used for detection of Aβ1-40 and Aβ1-42, respectively, and are diluted in 1% BlockAce and incubated for 2 hours at room temperature. Plates are thoroughly washed with PBS (0.05% Tween 20), and streptavidin conjugated HRP is added for 1 hour at room temperature. Finally the plates are washed four times with PBST before adding the substrate TMB for 30 minutes. Absorbance at 450 nm is measured in duplicate wells after addition of 2 M H2SO4. All ELISA experimental data are from three different days. Synthetic Aβ40 and Aβ42 peptides are used for construction of calibration curves, and Aβ is measured in lysates.

N2a-SwedAPP cells = assay: MTT viability assay in N2a-SwedAPP cells; type: cell-based, murine; conditions: mouse, 48 h
Method: as §1
For the viability assay, N2a-SwedAPP cells were seeded in a 96-well plate (7000 cells/well and 5000 cells/well). […] Finally, optical intensity was measured using a BioRad plate reader at 570 nm and a reference of 620 nm. […]
N2a-SwedishAPP cells are widely used as a cellular model of Alzheimer's disease, because they express a high level of APP and Aβ. The effects of HLJDT and its components on viability of N2SwedAPP cells are monitored by using the MTT assay. […]

## COc1ccc2cc3[n+](cc2c1OC)CCc1cc2c(cc1-3)OCO2 [berberine]
[1]; 6.25 μM, 48 hours
  reduction of sAPPα level: 30%
  reduction of sAPPβ-sw level: 45%
[1]; 12.5 μM, 48 hours
  reduction of CTFs level: 67%
  reduction of F1-APP level: 54%
  reduction of pAPPThr668 level: 42%
  reduction of sAPPα level: 58%
  reduction of sAPPβ-sw level: 70%
[1]; N2a-SwedAPP cells
  CTFs (overall influence): ↓
  Fl-APP (overall influence): ↓
  sAPPα (overall influence): ↓
  sAPPβ (overall influence): ↓
TgCRND8 mice
  effect on Aβ pathology, gliosis and cognitive impairments: significantly reduce
[2]; 12.5 μM, 48 h
  reduction of intracellular Aβ1-40: 37%
  reduction of intracellular Aβ1-42: 25%
[2]; N2a-SwedAPP cells
  Aβs (overall influence): ↓
N2a-SwedAPP cells
  non-toxic concentration (highest concentration that shows greater than 90% cell viability): 12.5 µM
